Laboratory results published in US9949976B2, “Kinase inhibitor and use thereof” (Sihuan Pharmaceutical Holdings Group Ltd., priority 2013, dated 2018).

What was measured:
[1] = In vivo assay for blood brain barrier permeability in rat; settings: male, SD, 30 mg/kg, PO
Description: Test animal: male SD rat, 3 rats/test compound/time point, weight: 250-300 g/rat
After separate PO administration of control agent and compound 1, blood was collected by cardiac puncture at 2, 4, 24 and 48 h; about 8 ml whole blood was collected, and placed in a centrifuge tube containing K2EDTA anticoagulant agent; cerebrospinal fluid and brain tissue were also collected at the same time, 3 rats at each time point. The collected whole blood was centrifuged at 3000 r/min at 4° C. in a high speed centrifuge for 10 min to separate the plasma; and the plasma was stored in a refrigerator at −80° C. After sample collection, the concentrations of control agent and compound 1 in plasma, brain tissue and cerebrospinal fluid were determined, respectively.
The plasma samples of control agent and compound 1 were analyzed by precipitation of protein: the test samples were taken from the refrigerator (−80° C.), thawed at room temperature, and then vortexed for 3 min; to 30 μL plasma, 200 μL internal standard (acetonitrile solution containing 25 ng/mL PD0332991) was added; the resultant mixture was vortexed for 10 min at 1500 r/min, and centrifuged at 4000 r/min for 20 min; to 100 μL supernatant, 100 μL water was added; the resultant mixture was mixed homogeneously under vortexing and analyzed by LC-MS/MS.
The brain tissue and cerebrospinal fluid samples for control agent and compound 1 were analyzed by precipitation of protein: the test samples were taken from the refrigerator (−80° C.), thawed at room temperature, and then vortexed for 3 min; to 20 μL homogenated brain tissue sample, 200 μL internal standard (a solution of methanol and water at 1:1 containing 40 ng/mL dextromethorphan and 50 ng/mL dextrorphan) was added; the resultant mixture was vortexed for 3 min at 1500 r/min, and centrifuged at 4° C., 4000 g for 5 min; to 100 μL supernatant, 50 μL 0.1% formic acid-water was added; the resultant mixture was mixed homogeneously under vortexing and analyzed by LC-MS/MS. Cerebrospinal fluid sample was treated by the same way as the homogenated brain tissue sample.

[2] = PK in U-87MG subcutaneous tumor model of BALB/c nude mouse; type: in vivo; settings: female, plasma, U87MG tumor-bearing nude mouse, PO QD 3 weeks, after last administration (Day 22)
Description: Test animal: female nude mouse (BALB/c), 10 mice/dose group/test compound, weight: 18-22 g/mouse.
U87MG cells from ATCC were cultured in MEM medium containing 10% fetal bovine serum; the cells were digested with trypsin containing EDTA by conventional methods; the cells were passaged for two generations every week, and were continuously cultured in a 37° C., 5% CO2 incubator.
Tumor cells in exponential growth phase were collected; U87MG cells were adjusted with PBS and matrigel at a ratio of 1:1 to a concentration of 5×10^7/mL; 0.1 mL cell suspension was seeded subcutaneously to right back of each mouse by injection with a 1 mL syringe. Tumor volumes were observed and measured, and the average tumor volume of U87MG reached about 200 mm^3 8 days after seeding; the tumor-bearing mice were grouped and were treated by oral administration of test compounds, at a dose of 0.1 mL/10 g body weight.
Blood collection: blood was collected from intraocular canthus. After the last administration (Day 22) of control agent and compound 1, blood/tumor was collected at the same time points, wherein as to 10 nude mice for each dose group, one was for standby, and the other 9 mice were divided into three groups, i.e., A, B and C groups.
A group (No. 1-3): blood was collected before administration, and at 1 h and 2 h after administration, and the mouse was sacrificed after blood collection at 2 h;
B group (No. 4-6): blood was collected at 15 min, 4 h and 6 h after administration, and the mouse was sacrificed after blood collection at 6 h;
C group (No. 7-9): blood was collected at 30 min, 10 h and 24 h after administration, and the mouse was sacrificed after blood collection at 24 h;
300 μL whole blood was collected at each time point, added to an anticoagulation tube containing K2EDTA, and centrifuged at 8000 r/min in a high speed centrifuge for 6 min to separate the plasma; the plasma was stored in a refrigerator at −80° C.
The plasma samples of control agent and compound 1 were analyzed by precipitation of protein: 30 μL plasma was added to a 96-deep well plate, and 200 μL internal standard (acetonitrile solution containing 25 ng/mL PD0332991) was added; the resultant mixture was vortexed for 3 min at 1500 r/min, and centrifuged for 20 min at 4000 r/min; to 100 μL supernatant, 100 μL water was added; the resultant mixture was mixed homogeneously under vortexing and analyzed by LC-MS/MS.

Compound | AUC(0-t) ([1]; dose 30, brain tissue) [ng·h/mL] | Cmax ([1]; dose 30, brain tissue) [ng/mL] | Tmax ([1]; dose 30, brain tissue) [h] | AUC(0-t) ([1]; dose 30, cerebrospinal fluid) [ng·h/mL] | Cmax ([1]; dose 30, cerebrospinal fluid) [ng/mL] | Tmax ([1]; dose 30, cerebrospinal fluid) [h] | AUC(0-t) ([1]; dose 30, plasma) [ng·h/mL] | Cmax ([1]; dose 30, plasma) [ng/mL] | Tmax ([1]; dose 30, plasma) [h] | AUC(0-t) ([2]; 50 mg/kg) [ng·h/mL] | Cmax ([2]; 50 mg/kg) [ng/mL] | Tmax ([2]; 50 mg/kg) [h] | AUC(0-t) ([2]; 100 mg/kg) [ng·h/mL] | Cmax ([2]; 100 mg/kg) [ng/mL] | Tmax ([2]; 100 mg/kg) [h] | AUC(0-t) ([2]; 200 mg/kg) [ng·h/mL] | Cmax ([2]; 200 mg/kg) [ng/mL] | Tmax ([2]; 200 mg/kg) [h]
CCN1CCN(Cc2cnc(Nc3cc(-c4cc(F)c5nc(C)n(C(C)C)c5c4)c(F)cn3)nc2)CC1 [Compound 1, 5-((4-ethylpiperazin-1-yl)methyl)-N-(5-fluoro-4-(4-fluoro-1-isopropyl-2-methyl-1H-benzo[d]imidazol-6-yl)pyridin-2-yl)pyrimidin-2-amine] | 12100 | 535 | 4 | 1290 | 106 | 4 | 49200 | 2610 | 4 | 23500 | 1770 | 2 | 34800 | 2180 | 1 | 49700 | 2510 | 6
CCN1CCN(Cc2ccc(Nc3ncc(F)c(-c4cc(F)c5nc(C)n(C(C)C)c5c4)n3)nc2)CC1 [LY2835219, reference compound] | 18100 | 673 | 4 | 451 | 11.8 | 4 | 40500 | 1500 | 4 | 19400 | 1160 | 1 | 27900 | 1530 | 4 |  |  | 
